We go through three compounds from patent US7989632B2, “Crystalline forms of solvated ilaprazole” (Il Yang Pharmaceutical Company, Ltd., priority 2006, dated 2011).

For data set [1], the system named is gastric-acid related disorders; acid-related gastric and duodenal ulcers. As to the kind of experiment: Phase 2 clinical studies conducted with ilaprazole. The format is in vivo, humans. The conditions noted are these: at the doses studied.
Data set [2] deals with gastric acid. Put plainly: Phase 1 clinical studies conducted with ilaprazole. In kind it is in vivo, humans. The note with it: Phase 1, at the doses studied.
Data set [3] in a line: Dynamic Vapor Sorption/Desorption (DVS) isotherm. The note with it: for DVS weight loss at 5% RH: samples not dried prior to analysis; for DVS weight loss from 95 to 5% RH: desorption. The format is physicochemical. The protocol:
Dynamic Vapor Sorption/Desorption (DVS): Data were collected on a VTI SGA-100 moisture balance system. For sorption isotherms, a sorption range of 5 to 95% relative humidity (RH) and a desorption range of 95 to 5% RH in 10% RH increments were used for analysis. The samples were not dried prior to analysis. Equilibrium criteria used for analysis were less than 0.0100% weight change in 5 minutes with a maximum equilibration time of 3 hours if the weight criterion was not met. Data were not corrected for the initial moisture content of the samples.

SMILES strings stand for the structures.

Turning to `COc1ccnc(C[S+]([O-])c2nc3cc(-n4cccc4)ccc3[nH]2)c1C` (stereo not drawn) [ilaprazole, 2[[(4-methoxy-3-methyl-2-pyridinyl)-methyl]sulfinyl]-5-(1H-pyrrol-1-yl) 1H-Benzimidazole], the healing of ulcers entry in data set [1] (Phase 2, acid-related gastric and duodenal ulcers) is listed as “promoted rapid healing”. The symptomatic relief result in data set [1] (Phase 2, patients with gastric-acid related disorders) is recorded as “provided symptomatic relief”. Moreover, in data set [2], the “suppression of gastric acid” value was “suppression of gastric acid occurs over a 24-hour period”.

For the compound `C1CCOC1.COc1ccnc(C[S+]([O-])c2nc3cc(-n4cccc4)ccc3[nH]2)c1C.COc1ccnc(C[S+]([O-])c2nc3cc(-n4cccc4)ccc3[nH]2)c1C` (racemic) [Form D, crystalline THF/racemic ilaprazole hemisolvate], in data set [3], the “DVS weight loss at 5% RH” value was roughly 0.6% and the “DVS weight loss from 95 to 5% RH” value was roughly 1.2%. Further, in data set [3] (sorption, 5 to 95% RH), the “DVS weight gain from 5 to 95% RH” value is listed as roughly 0.6%.

Regarding `C1COCCO1.COc1ccnc(C[S+]([O-])c2nc3cc(-n4cccc4)ccc3[nH]2)c1C.COc1ccnc(C[S+]([O-])c2nc3cc(-n4cccc4)ccc3[nH]2)c1C` (racemic) [Form C, crystalline 1,4-dioxane/racemic ilaprazole hemi-solvate], in data set [3], the “DVS weight loss at 5% RH” value was roughly 1.2% and the “DVS weight loss from 95 to 5% RH” value is given as roughly 4.1%. Moreover, the “DVS weight loss from 5 to 95% RH” value in data set [3] (sorption, 5 to 95% RH) is roughly 1.1%.
